Results: patent US6465432B1, “Isolated antioxidant peptides form casein and methods for preparing, isolating, and identifying antioxidant peptides” (Kraft Food Holdings, Inc., priority 2000, dated 2002)
No end group written: not given here.

How the values were obtained:
Assay type in all cases: biochemical
[1] = ABTS total antioxidative activity assay (ABTS, metmyoglobin, H2O2; absorbance at 734 nm)
Description: (§1) Phase I fractions of the protein hydrolysates generated with various proteases in Example 1 were analyzed for their ability to prevent accumulation of free radicals derived from 2,2′-azino-bis(3-ethylbenzthiazoline-6-sulfonic acid) (ABTS). Both total antioxidative activity and total reducing power of protein hydrolysate using ABTS and preformed ABTS radical, respectively, were used. These two model systems allowed mechanistic information of antioxidative activity of protein hydrolysates to be obtained. Furthermore, the analysis provided specific data related to whether the protein hydrolysates have the capacity of scavenging radicals in an oxidation system.
Total antioxidant assays using ABTS were performed according to Cox et al., “Biological assays for cellular transformation,” Methods in Enzymology 238:277 (1994); and Plumb et al., “Are Whole Extracts and Purified Glucosinolates from Cruciferous Vegetables Antioxidants?,” Free Rad. Res. 25:75 (1996). The assay was performed in a total volume of 1.2 ml. Twenty-five microliters of sample (Phase I hydrolysate fractions as described in Example 1 or Trolox standard (2.5 mM) (Aldrich, Milwaukee, Wis.) were combined with 100 μl of ABTS solution (2.5 mM ABTS (Sigma, St. Louis, Mo.) in PBS), 180 μl of MetMb solution (50 μM Metmyoglobin made from mixing 1:1 v/v of 100 µM myoglobin (Sigma, St. Louis, Mo.) and 100 μM Metmyoglobin (Sigma, St. Louis, Mo.); and 100 μM potassium ferricyanide (Aldrich, Milwaukee, Wis.) in PBS), and 775 μl PBS. One-hundred and 20 microliters of 10 mM H2O2 were then added. The mixture was agitated and absorbance was read at 734 nm over a period of 10-15 min.

[2] = Total reducing power assay using ABTS radical; details: for antioxidative activity in the ABTS radical assay: HPLC-isolated fractions of Phase I, concentrations not adjusted after HPLC; for reducing power in terms of scavenging pre-formed ABTS radical: synthesized peptide 0.0832 mM, Trolox 0.0208 mM, n=5
Description: as §1
Total reducing power assays using ABTS radical were performed according to the methods of Pellegrini et al., “Screening of Dietary Carotenoids and Carotenoid-Rich Fruit Extracts for Antioxidant Activities Applying 2,2 ′-Azinobis(3-ethylenebenzothiazoline-6-sulfonic acid Radical Cation Decolorization Assay,” Methods in Enzymology 299:379 (1999). This assay measures antioxidant capability as reducing power in terms of scavenging pre-formed ABTS radical. Equal volumes of lOmM PBS and sample (Phase I hydrolysate fractions as described in Example 1) were combined and 2.5 times the total volume (i.e., PBS and sample combined) of a working solution of ABTS radical was added. The mixture was agitated and absorbance at 734 nm was measured after 10 minutes of incubation at […]. Acetone or PBS was used as a blank where appropriate. The working solution of ABTS radical was prepared by adding 1 volume of a ABTS radical stock solution to 80 volumes of 10 mM PBS (pH 7.0) and adding, if necessary, PBS or ABTS stock solution to adjust the absorbance to about 0.83 at 734 nm. The ABTS radical stock solution contained 2.5 mM K2S2O8 and 6.9 mM ABTS.

[3] = Hydroxyl radical (Fenton) assay; details: synthesized peptide 0.2083 mM, Trolox 0.0521 mM; n=5; FIG. 22
Description: An analysis was performed to evaluate the ability of the peptide samples (Phase I and II hydrolysate fractions as described in Example 1) to quench the hydroxyl radical. The hydroxyl radical is an exceptionally active agent that reacts nonselectively with all organic constituents of food. Consequently, it can directly initiate lipid oxidation in food systems. The capacity to quench hydroxyl radicals, therefore, should theoretically be a very important characteristics for food antioxidants.
The hydroxyl radical (Fenton) assay was performed according to the methods of Lee, B. J., et al., “Antioxidant effects of L-carnosine on liposomes and beef homogenates,” J. Food Sci. 62:931 (1997). For this assay, 945 μl buffer (0.1 M phosphate buffer, pH 7.4), 60 μl EDTA-FeCl3 solution (92 mM EDTA, 26 mM FeCI3 in 0.1 M phosphate buffer pH 7.4), 25 μl sample (Phase I and II hydrolysate fractions as described in Example 1 or Trolox standard (2.5 mM)), and 120 μl of 1 mM H2O2 were combined. To this solution, 50 μl of a deoxyribose-ascorbic acid solution (67 mM deoxyribose, 4.8 mM ascorbic acid, in 01 M phosphate buffer pH 7.4) was added, and the solution was mixed and incubateded at 37° C. for 1 hr. […] Absorbance of the solution is then read at 532 nm after cooling to room temperature. […]

[4] = synthesized peptide 0.0832 mM, Trolox 0.0208 mM, n=5

Compound	total antioxidative activity [1, 4]	antioxidative activity in the ABTS radical assay [2]	reducing power in terms of scavenging pre-formed ABTS radical [2]	other results
Cc1c(C)c2c(c(C)c1O)CCC(C)(C(=O)O)O2 (centres unmarked) [Trolox, reference compound]	–	–	–	total antioxidative activity ([1]; Phase I of milk protein hydrolysates, FIG. 2, PBS negative control, Trolox positive control): typical delay of initiation or lag phase of the oxidation system; time until after which oxidation was virtually totally suppressed ([1]; Trolox 0.0208 mM): > 2 h
AYFYPE [fragment of alpha S1-casein (amino acid residue 158˜163) from bovine milk]	significant (p<0.05) when compared to PBS controls	strong antioxidative activity	strong antioxidative activity	time within which oxidation reached maximal levels ([1]; synthesized peptide 0.0832 mM): ≤ 1.5 h
Gln-Phe-Tyr [cyclic QFY] (not fully specified (bridges); printed as Gln-Phe-Tyr [cyclic QFY]; also: cyclic, kind not given here) [cyclic tripeptide, fragment of alpha S1-casein (amino acid residues 167-169) from bovine milk]	slightly stronger antioxidative activity	strong antioxidative activity	significantly (p<0.05) scavenged pre-formed ABTS radical	capacity to quench hydroxyl radicals [3]: slightly stronger capacity to quench hydroxyl radicals
Gln-Phe-Tyr [linear QFY]	have antioxidative activity	–	significantly (p<0.05) scavenged pre-formed ABTS radical	capacity to quench hydroxyl radicals [3]: possess the capacity to quench hydroxyl radicals
LAYFYPE (Bovine) [Leu-Ala-Tyr-Phe-Tyr-Pro-Glu]	–	strong antioxidative activity	–	–
RYLGYLE (Bovine) [Arg-Tyr-Leu-Gly-Tyr-Leu-Glu, fragment of alpha S1-casein (amino acid residues 105˜111) from bovine milk]	–	strong antioxidative activity	statistically significant when compared to PBS controls	–
YLGYLE [fragment of alpha S1-casein (amino acid residues 106˜111) from bovine milk]	–	strong antioxidative activity	–	–
